# Measurements taken from patent EP1289507B1, “USE OF AN ALDOSTERONE ANTAGONIST FOR THE TREATMENT OR PROPHYLAXIS OF ALDOSTERONE-MEDIATED PATHOGENIC EFFECTS” (priority 2000, dated 2001).
# Entries after “also recorded” stand apart in the source; their conditions may differ.
# Legend:
# [1] = tested on: saline-loaded adrenalectomized rats treated with aldosterone; experiment: Subcutaneous vs. oral administration: urinary Na/K in saline-loaded adrenalectomized rats treated with aldosterone; format: in vivo; conditions: antagonizing aldosterone-mediated renal effects
# Experimental: Urinary sodium, potassium and water excretion were measured. The results are expressed as the ratio of excreted urinary sodium to potassium (Na/K) ± SEM.
# [2] = 96 hours postdose; other tissues below the limit of detection; 20 mg/kg
# [3] = Multiple dose tolerability and pharmacokinetic trials, Japan and Ex-Japan; format: in vivo, Japanese (Japan) and European (Ex-Japan) subjects; conditions: Japanese male subjects, 400 mg daily for seven days, six subjects
# Experimental: The Ex-Japan trials included (i) a single dose tolerability trial, and (ii) a multiple dose tolerability trial, and (iii) a food effect study.
# Both single dose and multiple dose tolerability trials were conducted in Japan utilizing healthy male Japanese subjects. […] Six subjects who received the 100 mg dose also participated in the food effect treatment arm of the single dose tolerability trial.
# No formal statistical analyses were performed and the actual derived data is presented for comparison purposes only.
# A multiple-dose safety and pharmacokinetic study among Japanese subjects was conducted in Japan. This was a single-blind, randomized, placebo-controlled study. […] Serial blood and urine samples were collected throughout the study for measurement of pharmacokinetic, renal, and hormonal parameters after a single dose on Day 1 and after seven days of dosing.
# [4] = tested on: captopril-treated, saline-drinking SHRSP; experiment: Protocol 2: Angiotensin II-induced renal damage in captopril-treated saline-drinking SHRSP; format: in vivo, male SHRSP/A3N
# Experimental: Animals. Studies were conducted in accordance with institutional guidelines using male SHRSP/A3N (generations F-75 to F-78), n = 37, from our local colony. These animals were bred from NIH stock, derived from the SHRSP/A3N substrain described originally by Okamoto and coworkers (Okamoto K et al. Circ. Res. 34 and 35 (suppl I):I-143-I-153.). All animals were housed in a room maintained on a 12:12-h light:dark-cycle and an ambient temperature of 22 ± 1°C in the Animal Care Facility at New York Medical College. Rats were weaned at 4 weeks of age and allowed free access to Purina Lab Chow 5001 (Ralston Purina, St. Louis, MO) and tap water until the initiation of experimental protocols.
# SHRSP were placed on Stroke-Prone Rodent Diet (#39-288, Zeigler Bros Inc., Gardners, PA) and 1% NaCl drinking solution ad libitum starting at 8.3 weeks of age. […] Animals were handled and weighed daily. Urine samples were collected for the assessment of proteinuria. Systolic blood pressure and heart rate were measured each week. After 2 weeks of treatment, animals were decapitated, trunk blood was collected into chilled EDTA tubes, and the kidneys were removed, blotted dry, and immediately weighed. Coronal sections of kidney were fixed and later processed for light microscopic evaluation.
# Assays and Analyses. Systolic blood pressure and heart rate of awake animals were measured by tail-cuff plethysmography using a Natsume KN-210 manometer and tachometer (Peninsula Laboratories Inc., Belmont, CA). Rats were warmed at 37°C for 10 min and allowed to rest quietly in a Lucite chamber before measurement of blood pressure. Measurements of urine volume were made gravimetrically. Urinary protein concentration was determined by the sulfosalicylic acid turbidity method. Plasma aldosterone was measured by radioimmunoassay using ^125I-aldosterone as a tracer (Coat-a Count Aldosterone, Diagnostic Products Co., Los Angeles, CA).
# Histology. Kidneys were preserved in 10% phosphate-buffered formalin. Coronal sections (2-3 µm) were stained with hematoxylin and eosin and examined by light microscopy in a blinded fashion as previously described (Stier CT et al. J Pharmacol Exp Ther (1992) 260:1410-1415). Glomerular damage was categorized as ischemic or thrombotic. Ischemic lesions were defined as retraction of glomerular capillary tufts with or without appreciable mesangiolysis. Glomerular thrombotic lesions were defined as any one of a combination of the following: segmental to global fibrinoid necrosis, focal thrombosis of glomerular capillaries, swelling and proliferation of intracapillary (endothelial and mesangial) and/or extracapillary cells (crescents), and expansion of reticulated mesangial matrix with or without significant hypercellularity. […] Vascular thrombotic lesions were defined as any one or a combination of the following: mural fibrinoid necrosis, extravasation and fragmentation of red blood cells, and luminal and/or mural thrombosis. Proliferative arteriopathy was characterized by proliferation of markedly swollen myointimal cells with swollen round to ovoid vesicular nuclei surrounded by mucinous extracellular matrix ("onion skinning") often resulting in nodular thickening. Vascular damage was expressed as the number of arteries and arterioles with lesions per 100 glomeruli. The presence of casts and tubular (ischemic) retraction and simplification was assessed semiquantitatively.
# Statistical Analysis. Significant effects with respect to treatment and time were determined by two-way analysis of variance. Data with only one grouping variable were analyzed statistically by Student's unpaired t tests. When more than two groups were compared, one-way analysis of variance was performed followed by the post-hoc Newman-Keul's multiple comparison test. Data were analyzed using version 2.01 of the GraphPad Prism statistical software package (GraphPad Software Inc., San Diego, CA). P < .05 was considered statistically significant. Data are reported as mean ± SEM.
# [5] = tested on: Stroke Prone Spontaneously Hypertensive Rat (SHR-SP); experiment: Blood pressure in stroke prone spontaneously hypertensive rat (SHR-SP), tail cuff plethysmography; format: in vivo
# Experimental: Methods: SHR-SP were bred in the animal facilities of New York Medical College and maintained on normal rat chow and non-saline drinking water (i.e., tap water). […] Indirect measurements of systolic blood pressure were assessed by tail cuff plethysmography.
# [6] = tested on: aldosterone/salt uninephrectomized rats; experiment: Myocardial injury in aldosterone/salt uninephrectomized rats; format: in vivo, Sprague Dawley rats; conditions: eplerenone 100 mg/k/d in chow; aldosterone 0.75ug/hr, 1% NaCl
# Experimental: Sprague Dawley rats (250 g) were uninephrectomized and provided with 1% NaCl-solution as the only source of water. The rats were then implanted with Alzet mini pump that subcutaneously delivered either aldosterone (0.75ug/hr) or vehicle. […] Blood pressure was measured by radio telemetry units implanted in abdominal aorta. Rats were sacrificed for examination of the hearts.
# [7] = captopril plus vehicle, or captopril plus angiotensin II plus eplerenone
compound,measurement,setting,value
"COC(=O)[C@@H]1CC2=CC(=O)CC[C@]2(C)[C@@]23O[C@@H]2C[C@@]2(C)[C@@H](CC[C@@]24CCC(=O)O4)[C@H]13 [Eplerenone, Pregn-4-ene-7,21-dicarboxylic acid, 9,11-epoxy-17-hydroxy-3-oxo-, γ-lactone, methyl ester, (7α, 11α, 17β)-]",efficacy of subcutaneous injection vs oral administration,[1],better efficacy than oral administration
same,"concentrations of radioactivity in cecum, kidneys, large intestine and liver",[2],less than 0.024 µg equivalents/g
same,adverse events,[3],mild fatigue on Day 2
same,"Glomerular damage, Ischemic","[4]; Captopril 50 mg/kg/d + vehicle, or CAP, Angiotensin II 25 ng/min + Eplerenone 100 mg/kg/d, 2 weeks",3.0 ± 1.0 lesions/100 glomeruli
same,"Glomerular damage, Thrombotic","[4]; as Table A-8B, 2 weeks",1.0 ± 0.3 lesions/100 glomeruli
same,"Glomerular damage, Total","[4]; as Table A-8B, 2 weeks",3.0 ± 1.0 lesions/100 glomeruli
same,"Renal arteriopathy, Proliferative","[4]; as Table A-8B, 2 weeks",0.1 ± 0.1 lesions/100 glomeruli
same,"Renal arteriopathy, Thrombotic","[4]; as Table A-8B, 2 weeks",4.0 ± 1.0 lesions/100 glomeruli
same,"Renal arteriopathy, Total","[4]; as Table A-8B, 2 weeks",4.0 ± 1.0 lesions/100 glomeruli
same,renal damage,[4]; captopril plus angiotensin II plus eplerenone 100 mg/kg/d,3 ± 1%
same,Preterminal systolic blood pressure,[4]; [7],231 ± 5 mm Hg
same,tubules with ischemic retraction and simplification,[4]; [7],2.5 ± 0.9%
same,proteinuria (urinary protein excretion),"[4]; end of study (2 weeks), captopril 50 mg/kg/d plus vehicle, or captopril plus angiotensin II 25 ng/min plus eplerenone 100 mg/kg/d",28 ± 5 mg/day
same,systolic blood pressure,"[5]; Week 13 (initiation), 100 mg/kg/day p.o. BID",201.4 ± 1.6 mmHg
same,systolic blood pressure,"[5]; Week 14, 100 mg/kg/day p.o. BID",202.8 ± 1.8 mmHg
same,systolic blood pressure,"[5]; Week 15, 100 mg/kg/day p.o. BID",208.0 ± 4.2 mmHg
same,systolic blood pressure,"[5]; Week 16, 100 mg/kg/day p.o. BID",203.1 ± 6.2 mmHg
same,histopathologic myocardial damage,[6],prevents the histopathologic damage; also recorded: prevents the aldosterone plus high sodium myocardial damage
